What was measured:
HiBiT-FZD5 = target: T1, HiBiT-FZD5 (Homo sapiens, UniProt Q13467); experiment: NanoBiT cell surface expression assay, HiBiT-FZD5; assay type: cell-based; details: 10 μM, overnight exposure
T1 construct: expressed in transfected cells; host or cells: HEK293A cells
Description: (§1) Subsequently, 10 μl of either compound 11 or 26 (DD436001) was added at a final concentration of 10 μM. DMSO was added separately as a control. One day after compound or DMSO addition, cells were washed once with HBSS, and 90 μl of HBSS was added to the wells. To measure cell surface expression, a 1:20 dilution of furimazine live cell substrate and 1:20 LgBiT mix (final dilution = 1:200) were prepared in HBSS and 10 μl was added. The plate was incubated for 30 min to allow for HiBiT–LgBiT complementation, and then luminescence was measured on a TECAN Spark multimode microplate reader between 460 and 500 nm (integration time: 200 ms).
(§2) Figure S4. BRET time-course of compound 11 at the FZD5-DEP-Clamp in agonist mode and HiBiT-FZD5/6 surface expression upon compound exposure. (A) Shown is the BRET time-course recorded upon addition of 30 µM compound 11 or vehicle (DMSO). Experiments were performed in HEK293A cells stably expressing the FZD5-DEP-Clamp sensor. […] The timepoint of ligand addition is indicated by a black arrow. (B, C) Impact of compound 11 on FZD cell surface expression. The cell surface pool of transiently-transfected HiBiT-FZD5 (B) and HiBiT-FZD6 (C) was assessed by addition of recombinant LgBiT in combination with detection of NanoBiT luminescence. […]

HiBiT-FZD6 = target: T2, HiBiT-FZD6 (Homo sapiens, UniProt O60353); experiment: NanoBiT cell surface expression assay, HiBiT-FZD6; assay type: cell-based; details: 10 μM, overnight exposure
T2 construct: expressed in transfected cells; host or cells: HEK293A cells
T2 sequence (O60353 19-706): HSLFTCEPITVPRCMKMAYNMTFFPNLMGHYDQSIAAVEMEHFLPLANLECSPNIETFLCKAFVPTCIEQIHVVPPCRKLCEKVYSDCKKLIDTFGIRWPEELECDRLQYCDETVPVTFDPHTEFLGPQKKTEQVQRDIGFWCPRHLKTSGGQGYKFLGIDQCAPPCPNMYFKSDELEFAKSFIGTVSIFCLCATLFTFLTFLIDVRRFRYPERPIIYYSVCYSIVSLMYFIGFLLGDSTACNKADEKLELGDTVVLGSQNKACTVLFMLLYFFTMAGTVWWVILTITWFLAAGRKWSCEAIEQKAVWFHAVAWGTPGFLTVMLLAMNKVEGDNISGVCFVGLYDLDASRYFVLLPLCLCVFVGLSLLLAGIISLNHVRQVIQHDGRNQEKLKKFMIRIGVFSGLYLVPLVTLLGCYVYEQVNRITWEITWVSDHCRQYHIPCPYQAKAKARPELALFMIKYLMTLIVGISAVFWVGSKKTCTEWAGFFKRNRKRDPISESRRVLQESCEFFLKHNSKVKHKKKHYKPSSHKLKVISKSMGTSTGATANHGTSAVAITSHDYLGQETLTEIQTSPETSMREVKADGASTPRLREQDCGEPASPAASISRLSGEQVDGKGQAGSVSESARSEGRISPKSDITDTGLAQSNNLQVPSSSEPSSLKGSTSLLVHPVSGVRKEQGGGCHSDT
Description: as §1, §2

[1] = target: T3, firefly luciferase (Fluc) (Photinus pyralis, UniProt P08659); experiment: Fluc counter assay (CMV-driven recombinant Fluc in HEK293 cells); assay type: cell-based; details: counter assay for readout interference
T3 construct: expressed in transfected cells; host or cells: HEK293 cells
Description: Figure S3. […] Experiments were performed in HEK293 cells.

Nluc-FZD6 = target: T4, Nluc-FZD6 (Homo sapiens, UniProt O60353); experiment: BRET-based BODIPY-cyclopamine competition binding at Nluc-FZD6 in live HEK293 cells
T4 construct: expressed in transfected cells; host or cells: ΔSMO HEK293A or ΔFZD1–10 HEK293T cells (screen); ΔFZD1–10 HEK293T cells (concentration–response curves)
T4 sequence (O60353 19-706): T2 sequence (O60353 19-706)
Description: After 24 h, cells were washed once with Hanks' balanced salt solution (HBSS), followed by the addition of 80 μl of HBSS. Next, 10 μl of the competitive ligand, that is, the tested SAG1.3 derivative (either in different concentrations for the concentration–response curves or at a final concentration of 10 μM for the first screens) and 10 μl of the fluorescent tracer BODIPY–cyclopamine (final concentration: 300 nM for the first screens, 200 nM for the concentration–response experiments) were added. All serial dilutions were prepared in HBSS. The cells were incubated for 90 min at 37 °C without additional CO2, after which 10 μl of luciferase substrate diluted in HBSS (furimazine; Promega, N1572, final dilution: 1:1000 for first screening) and coelenterazine h (Biosynth; final concentration: 5 μM for concentration–response experiments) were added to the cells. Following a 10 min incubation period in the dark, the measurement was started on a BMG Labtech ClarioStar or TECAN Spark multimode microplate reader, prewarmed to 37 °C. Nluc bioluminescence was detected between 460 and 490 nm (ClarioStar) or 460 and 500 nm (TECAN Spark). The emission of the fluorescent tracer was detected between 520 and 550 nm (ClarioStar) or between 520 and 560 nm (TECAN Spark).
For each binding experiment, the measurement was repeated five times and averaged for the analysis. ΔBRET values were obtained by subtracting the BRET ratio obtained in wells containing BODIPY–cyclopamine but no competitive ligand (100% value). The BRET values for full displacement were defined using “donor-only” control wells, which contained Nluc-FZDx-transfected cells but no BODIPY–cyclopamine.
For the full concentration–response BRET binding curves in Figure 2, BRET values were normalized (separately for each experiment) to control wells containing BODIPY–cyclopamine but no competitive ligand (100% value) and “donor-only” wells (0% value, described previously). […] Obtained IC50 values were transformed to pIC50 values, which were subsequently averaged between experiments. Displacement curves showing the non-normalized data (ΔBRET values generated as described previously) can be found in Fig. S2.
Shown are mean values and SDs from N independent experiments (N = 2-8) performed in duplicate.
Shown are mean values ± SEM from N independent experiments performed in triplicate.

T3 sequence (P08659 whole entry): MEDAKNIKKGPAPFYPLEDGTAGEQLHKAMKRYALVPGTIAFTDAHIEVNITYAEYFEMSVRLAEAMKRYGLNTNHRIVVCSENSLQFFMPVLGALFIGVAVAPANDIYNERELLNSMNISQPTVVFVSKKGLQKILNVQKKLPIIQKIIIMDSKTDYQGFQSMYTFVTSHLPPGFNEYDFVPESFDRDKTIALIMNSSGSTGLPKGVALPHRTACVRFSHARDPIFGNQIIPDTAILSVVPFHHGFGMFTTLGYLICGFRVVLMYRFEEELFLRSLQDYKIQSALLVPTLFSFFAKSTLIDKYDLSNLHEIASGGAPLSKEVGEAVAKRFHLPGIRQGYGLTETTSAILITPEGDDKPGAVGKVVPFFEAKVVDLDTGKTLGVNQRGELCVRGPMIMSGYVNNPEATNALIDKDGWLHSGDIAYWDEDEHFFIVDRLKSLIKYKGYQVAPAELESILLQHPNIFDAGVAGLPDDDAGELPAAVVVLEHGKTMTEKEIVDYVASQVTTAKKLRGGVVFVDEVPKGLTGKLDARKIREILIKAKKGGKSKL
T1 sequence (Q13467 27-585): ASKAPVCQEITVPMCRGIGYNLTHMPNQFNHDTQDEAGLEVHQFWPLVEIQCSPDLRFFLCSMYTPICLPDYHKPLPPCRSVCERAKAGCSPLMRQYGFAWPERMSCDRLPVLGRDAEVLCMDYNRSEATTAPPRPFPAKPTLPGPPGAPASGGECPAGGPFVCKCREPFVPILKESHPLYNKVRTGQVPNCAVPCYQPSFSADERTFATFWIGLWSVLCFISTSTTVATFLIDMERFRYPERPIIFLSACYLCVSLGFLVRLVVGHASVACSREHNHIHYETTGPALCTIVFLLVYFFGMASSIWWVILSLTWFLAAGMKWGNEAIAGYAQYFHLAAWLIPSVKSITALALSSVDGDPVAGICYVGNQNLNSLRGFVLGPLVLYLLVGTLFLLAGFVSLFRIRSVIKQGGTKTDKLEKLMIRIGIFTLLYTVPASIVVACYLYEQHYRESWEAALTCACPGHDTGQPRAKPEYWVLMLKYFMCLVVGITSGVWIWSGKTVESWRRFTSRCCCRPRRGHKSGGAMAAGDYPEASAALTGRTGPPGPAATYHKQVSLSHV

In the case of `CC(=O)Nc1cccc(C(=O)NC2CCC(N(Cc3cccc(-c4ccncc4)c3)C(=O)c3sc4ccccc4c3Cl)CC2)c1` (stereo not shown) [compound 11, N-((1r,4r)-4-(3-Acetamidobenzamido)cyclohexyl)-3-chloro-N-(3-(pyridin-4-yl)benzyl)benzo[b]thiophene-2-carboxamide], the “Effect on surface levels of HiBiT-FZD5” value (HiBiT-FZD5) is reported as “had no effect”, the “Effect on surface levels of HiBiT-FZD6” value (HiBiT-FZD6) is reported as “had no effect” and the “Interference with Fluc bioluminescence” value [1] is reported as “interferes with Fluc bioluminescence”. For the same compound, the “Displacement @ 10 µM compound (Nluc-FZD6) ΔBRET” value (Nluc-FZD6; 10 µM compound, BODIPY-cyclopamine 300 nM, BMG Labtech ClarioStar reader (complete tracer displacement: net BRET = -0.02736)) was -0.0228, the Displacement % (Nluc-FZD6; 10 µM compound, BODIPY-cyclopamine 300 nM, ClarioStar reader) was 83.2% and the IC50 (Nluc-FZD6; BODIPY-cyclopamine 200 nM, ΔFZD1-10 HEK293T cells, read-out: pIC50 (Nluc-FZD6) mean ± SEM (converted)) was 1.02 µM. The “IC50 values of competition binding within the FZD family (in words)” value (Nluc-FZD6; Nluc-FZD6 and other FZD paralogs) was “three-digit nanomolar to single-digit micromolar range”.

Reference: article PMC12605013, “SAG1.3-derived Frizzled-targeting small-molecule compounds” (The Journal of Biological Chemistry, 2025)
